# Measurements as given in patent US10435371B2, “Multifunctional aminoquinoline therapeutic agent” (LOHOCLA RESEARCH CORPORATION, priority 2014, dated 2019).
# Tests used:
# Serotonin Transporter = Serotonin Transporter (Homo sapiens, UniProt P31645); experiment: PDSP radioligand binding
# [1] = system: rats treated with streptozotocin; experiment: Reversal of streptozotocin-induced (diabetic) neuropathic pain (von Frey); assay type: in vivo, rat
# D2 (Dopamine Rs) = D2 (Dopamine Rs) (Homo sapiens, UniProt P14416); experiment: PDSP radioligand binding
# D2 (Dopamine Rs), sequence (P14416 whole entry): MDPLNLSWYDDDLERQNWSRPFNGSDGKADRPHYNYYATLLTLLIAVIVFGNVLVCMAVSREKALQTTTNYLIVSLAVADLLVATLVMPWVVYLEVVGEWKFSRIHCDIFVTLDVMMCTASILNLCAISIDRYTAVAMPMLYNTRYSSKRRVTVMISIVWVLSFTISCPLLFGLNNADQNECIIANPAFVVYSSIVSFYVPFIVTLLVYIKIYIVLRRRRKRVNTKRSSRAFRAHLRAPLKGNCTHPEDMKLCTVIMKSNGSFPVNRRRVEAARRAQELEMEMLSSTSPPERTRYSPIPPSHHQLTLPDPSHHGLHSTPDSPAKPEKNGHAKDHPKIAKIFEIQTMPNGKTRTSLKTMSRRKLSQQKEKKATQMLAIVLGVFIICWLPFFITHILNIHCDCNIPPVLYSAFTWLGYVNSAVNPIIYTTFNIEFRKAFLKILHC
# [2] = system: rats treated with Complete Freund's Adjuvant; experiment: Reversal of CFA-induced neuropathic pain (von Frey mechanical pain threshold); assay type: in vivo, rat; details: for Mechanical pain threshold, ratio to baseline: 1 hour
# 5-HT3 (Serotonin Rs) = 5-HT3 (Serotonin Rs) (Homo sapiens, UniProt P46098); experiment: PDSP radioligand binding
# 5-HT3 (Serotonin Rs), sequence (P46098 24-478): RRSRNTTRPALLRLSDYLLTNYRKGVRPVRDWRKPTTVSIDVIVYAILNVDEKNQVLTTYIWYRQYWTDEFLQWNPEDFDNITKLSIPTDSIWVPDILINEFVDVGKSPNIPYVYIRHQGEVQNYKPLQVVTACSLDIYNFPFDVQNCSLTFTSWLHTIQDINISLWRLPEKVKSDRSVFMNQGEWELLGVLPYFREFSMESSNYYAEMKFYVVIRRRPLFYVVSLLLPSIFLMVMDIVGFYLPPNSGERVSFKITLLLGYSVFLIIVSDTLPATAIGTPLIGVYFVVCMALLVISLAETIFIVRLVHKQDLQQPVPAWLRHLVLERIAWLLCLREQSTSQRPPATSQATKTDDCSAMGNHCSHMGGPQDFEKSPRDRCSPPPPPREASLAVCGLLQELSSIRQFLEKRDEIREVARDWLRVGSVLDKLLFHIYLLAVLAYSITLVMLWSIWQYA
# ethanol dependent rats = experiment: Operant responding for alcohol in ethanol vapor-exposed dependent rats; assay type: in vivo, rat; details: ethanol vapor-exposed rats; FIG. 18
# Excerpt: This example illustrates that ethanol dependent rats are motivated to work for ethanol reward during a period of forced abstinence and that DCUK-OEt reduces responding for the alcohol reward.
# The methods used in this study are extensively described in (Vendruscolo et al., 2012). The rats were first trained to self-administer ethanol in an operant chamber. The rats were given free-choice access to alcohol (10% w/v) and water for 1 day in their home cages to habituate them to the taste of alcohol. The rats were then subjected to an overnight session in the operant chambers with access to one lever that delivered water (FR1). Food was available ad libitum during this training. After 1 day off, the rats were subjected to a 2 hour session (FR1) for 1 day and a 1 hour session (FR1) the next day, with one lever delivering alcohol. All of the subsequent sessions lasted 30 minutes, and two levers were available (left lever: water; right lever: alcohol). Once trained, the rats were made dependent by chronic, intermittent exposure to alcohol vapors (Gilpin et al., 2008). They underwent cycles of 14 hours of ethanol exposure (blood alcohol levels during vapor exposure ranged between 150 and 250 mg %) and 10 hours in the absence of ethanol vapor, during which behavioral testing for acute withdrawal occurred (i.e., 6-8 hours after vapor was turned off, when brain and blood alcohol levels were negligible). Nondependent rats were those not exposed to alcohol vapor. Pharmacological testing occurred after at least 2 months of vapor exposure, when full dependence was observed. DCUKA-OEt was administered i.p. at the doses specified in FIG. 18, sixty minutes prior to placing the animal in the operant chamber. The vehicle for DCUK-OEt was injected in certain animals as a control.
# [3] = target: GABA site, GABA-A Receptor; experiment: PDSP radioligand displacement, [^3H]Muscimol; parameters: species or system rat; details: read-out: Binding constant Ki, GABA site, GABA-A Receptor
# delta opiate receptor = delta opiate receptor (Homo sapiens, UniProt P41143); experiment: cAMP accumulation, HeLa cells transfected with D1 receptor, DOR and AC5; assay type: cell-based; parameters: expressed in transfected cells; details: HeLa cells, AC5
# delta opiate receptor, sequence (P41143 whole entry): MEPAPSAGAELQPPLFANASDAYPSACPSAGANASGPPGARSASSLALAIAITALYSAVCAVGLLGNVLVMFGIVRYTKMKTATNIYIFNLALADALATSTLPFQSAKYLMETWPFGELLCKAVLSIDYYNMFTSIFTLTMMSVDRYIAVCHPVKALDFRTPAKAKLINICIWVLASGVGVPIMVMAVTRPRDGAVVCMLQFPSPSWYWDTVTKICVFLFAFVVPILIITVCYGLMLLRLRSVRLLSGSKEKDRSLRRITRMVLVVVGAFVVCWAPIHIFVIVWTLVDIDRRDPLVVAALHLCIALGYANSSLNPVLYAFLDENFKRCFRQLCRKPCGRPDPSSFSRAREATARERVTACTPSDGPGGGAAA
# 5-HT1A (Serotonin Rs) = 5-HT1A (Serotonin Rs) (Homo sapiens, UniProt P08908); experiment: PDSP radioligand binding
# 5-HT1A (Serotonin Rs), sequence (P08908 whole entry): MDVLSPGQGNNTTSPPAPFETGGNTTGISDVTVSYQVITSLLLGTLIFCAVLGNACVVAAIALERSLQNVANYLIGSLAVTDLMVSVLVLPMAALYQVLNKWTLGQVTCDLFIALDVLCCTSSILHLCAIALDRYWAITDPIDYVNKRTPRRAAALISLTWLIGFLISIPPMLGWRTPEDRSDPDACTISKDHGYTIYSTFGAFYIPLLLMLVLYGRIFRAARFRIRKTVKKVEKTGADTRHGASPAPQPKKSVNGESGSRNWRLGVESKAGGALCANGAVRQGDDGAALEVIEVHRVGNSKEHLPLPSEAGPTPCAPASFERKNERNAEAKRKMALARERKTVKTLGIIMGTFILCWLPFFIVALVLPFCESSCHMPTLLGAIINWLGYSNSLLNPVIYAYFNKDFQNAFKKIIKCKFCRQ
# [4] = target: β2 (Adrenergic Rs (beta adrenergic)) (Homo sapiens, UniProt P07550); experiment: PDSP radioligand binding
# β2 (Adrenergic Rs (beta adrenergic)), sequence (P07550 whole entry): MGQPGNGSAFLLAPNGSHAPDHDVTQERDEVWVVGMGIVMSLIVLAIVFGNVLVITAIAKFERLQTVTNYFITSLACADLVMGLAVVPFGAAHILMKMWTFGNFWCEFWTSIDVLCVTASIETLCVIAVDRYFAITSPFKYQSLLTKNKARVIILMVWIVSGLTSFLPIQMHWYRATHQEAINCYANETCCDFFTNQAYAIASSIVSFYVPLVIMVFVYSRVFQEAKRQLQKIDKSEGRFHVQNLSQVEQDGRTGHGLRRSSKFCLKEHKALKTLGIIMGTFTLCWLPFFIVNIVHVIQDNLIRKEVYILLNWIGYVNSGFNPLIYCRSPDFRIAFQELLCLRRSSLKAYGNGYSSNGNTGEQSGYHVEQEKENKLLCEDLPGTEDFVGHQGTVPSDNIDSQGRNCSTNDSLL
# V1A (Vasopressin) = V1A (Vasopressin) (Homo sapiens, UniProt P37288); experiment: PDSP radioligand binding
# V1A (Vasopressin), sequence (P37288 whole entry): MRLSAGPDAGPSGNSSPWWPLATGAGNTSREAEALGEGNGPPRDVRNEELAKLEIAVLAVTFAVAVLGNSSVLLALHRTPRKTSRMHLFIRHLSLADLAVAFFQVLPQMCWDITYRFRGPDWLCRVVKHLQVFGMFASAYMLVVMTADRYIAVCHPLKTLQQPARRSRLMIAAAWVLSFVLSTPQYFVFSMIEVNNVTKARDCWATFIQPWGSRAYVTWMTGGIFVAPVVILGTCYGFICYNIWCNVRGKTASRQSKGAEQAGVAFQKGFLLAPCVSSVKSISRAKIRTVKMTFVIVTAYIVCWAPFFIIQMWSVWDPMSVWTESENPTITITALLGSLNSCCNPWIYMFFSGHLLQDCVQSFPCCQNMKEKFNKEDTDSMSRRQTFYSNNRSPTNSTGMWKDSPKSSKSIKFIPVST
# [5] = target: CaV1.2 (Voltage sensitive Ca** channel (L-type)) (Homo sapiens, UniProt Q13936); experiment: PDSP radioligand binding; details: Table 3, the 6th table r22c0; read-out: Ki, CaV1.2 (lack of affinity)
# 5-HT1B (Serotonin Rs) = 5-HT1B (Serotonin Rs) (Homo sapiens, UniProt P28222); experiment: PDSP radioligand binding
# 5-HT1B (Serotonin Rs), sequence (P28222 whole entry): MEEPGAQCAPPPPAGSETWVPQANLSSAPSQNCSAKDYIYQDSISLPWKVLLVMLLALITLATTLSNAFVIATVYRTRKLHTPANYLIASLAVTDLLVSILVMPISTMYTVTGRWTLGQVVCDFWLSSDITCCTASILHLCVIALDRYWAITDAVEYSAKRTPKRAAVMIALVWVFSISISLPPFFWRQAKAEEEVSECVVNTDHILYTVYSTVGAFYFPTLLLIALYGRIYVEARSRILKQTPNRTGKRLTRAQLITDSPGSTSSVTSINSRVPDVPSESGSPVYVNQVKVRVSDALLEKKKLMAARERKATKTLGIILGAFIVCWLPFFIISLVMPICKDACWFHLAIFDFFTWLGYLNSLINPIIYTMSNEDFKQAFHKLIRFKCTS
# Serotonin Transporter, sequence (P31645 whole entry): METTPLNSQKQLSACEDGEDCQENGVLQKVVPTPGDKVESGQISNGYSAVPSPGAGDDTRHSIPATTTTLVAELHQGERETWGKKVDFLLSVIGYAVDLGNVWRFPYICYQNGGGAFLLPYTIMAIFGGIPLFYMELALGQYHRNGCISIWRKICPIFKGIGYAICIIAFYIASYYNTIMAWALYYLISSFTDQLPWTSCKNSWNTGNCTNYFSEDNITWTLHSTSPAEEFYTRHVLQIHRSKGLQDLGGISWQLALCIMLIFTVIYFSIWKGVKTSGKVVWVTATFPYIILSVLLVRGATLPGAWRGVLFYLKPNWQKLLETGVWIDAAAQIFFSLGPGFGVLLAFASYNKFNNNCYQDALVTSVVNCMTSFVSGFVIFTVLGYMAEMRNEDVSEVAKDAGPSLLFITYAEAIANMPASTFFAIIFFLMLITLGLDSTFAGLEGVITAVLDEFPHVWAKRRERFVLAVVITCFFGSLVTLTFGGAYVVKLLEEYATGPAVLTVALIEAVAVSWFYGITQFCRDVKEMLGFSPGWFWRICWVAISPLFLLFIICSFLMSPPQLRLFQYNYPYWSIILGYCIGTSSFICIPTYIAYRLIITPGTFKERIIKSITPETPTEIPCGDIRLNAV
smiles,measurement,setting,value
"O=C(O)c1cc(NC(=O)N(c2ccccc2)c2ccccc2)c2c(Cl)cc(Cl)cc2n1 [DCUKA, 5,7-dichloro-4-(3,3-diphenylureido)quinoline-2-carboxylic acid]",Ki,Serotonin Transporter,> 10 µM
same,"Mechanical pain threshold, ratio to baseline","[1]; 14 days after STZ, 40 or 50 mg/kg oral, 90 minutes, three experiments combined, FIG. 10",reversed to the baseline level
same,Difference between 50 mg/kg DCUKA and 0 mg/kg DCUKA in ratio of mechanical pain threshold to pre-STZ threshold,"[1]; Fisher's LSD, p<0.0001, FIG. 10",0.60
same,Doses that reversed the effect of STZ on pain threshold back to baseline,"[1]; oral, 90 minutes, meta-analysis of four experiments, FIG. 11",≥ 30 mg/kg
same,Ki,D2 (Dopamine Rs),> 10 µM
same,"Mechanical pain threshold, ratio to baseline","[2]; 48-60 h after CFA, 50 mg/kg oral, three experiments combined, FIG. 7",a level not significantly different from the baseline level
same,"Mechanical pain threshold, ratio to baseline","[2]; 48 h after CFA, 50 mg/kg, DCUKA n=17, BCUKA n=6, FIG. 8",reversed the mechanical pain threshold to a level not significantly different from baseline
same,Doses that significantly reversed the CFA-induced decrease of mechanical pain threshold,"[2]; oral, 60 min, meta-analysis of five experiments, FIG. 9",≥ 30 mg/kg
same,Ki,5-HT3 (Serotonin Rs),> 10 µM
same,Alcohol self-administration compared to baseline,ethanol dependent rats,no significant effect on repressing alcohol self-administration
same,Ki,[3],6.6 ± 1.8 µM
same,Character of action at the delta opiate receptor,delta opiate receptor,agonist
same,IC50,"delta opiate receptor; D1, DOR, 10 μM DA, DCUKA 0.25-20 μM, regression analysis, FIG. 3, read-out: IC50 for inhibition of cAMP accumulation",3.9 ± 0.47 µM
same,Ki,5-HT1A (Serotonin Rs),> 10 µM
same,Ki,[4],> 10 µM
same,Ki,V1A (Vasopressin),> 10 µM
same,Ki,[5],> 10 µM
same,Ki,5-HT1B (Serotonin Rs),> 10 µM
